According to patent publication US10550105B2 (Ribon Therapeutics Inc., priority 2018, dated 2020):

Target: PARP7 (Homo sapiens (Human), UniProt Q7Z3E1)
Experiment: Enzymatic assay for inhibition of PARP7: TR-FRET displacement of biotinylated Probe A from the TIPARP active site
Type: binding
Settings: Table A-1
Outline: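 TR-FRET, ex 320 nm / em 615 and 665 nm. Signal ratio reflects complex formation.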

PARP7, sequence (Q7Z3E1 whole entry): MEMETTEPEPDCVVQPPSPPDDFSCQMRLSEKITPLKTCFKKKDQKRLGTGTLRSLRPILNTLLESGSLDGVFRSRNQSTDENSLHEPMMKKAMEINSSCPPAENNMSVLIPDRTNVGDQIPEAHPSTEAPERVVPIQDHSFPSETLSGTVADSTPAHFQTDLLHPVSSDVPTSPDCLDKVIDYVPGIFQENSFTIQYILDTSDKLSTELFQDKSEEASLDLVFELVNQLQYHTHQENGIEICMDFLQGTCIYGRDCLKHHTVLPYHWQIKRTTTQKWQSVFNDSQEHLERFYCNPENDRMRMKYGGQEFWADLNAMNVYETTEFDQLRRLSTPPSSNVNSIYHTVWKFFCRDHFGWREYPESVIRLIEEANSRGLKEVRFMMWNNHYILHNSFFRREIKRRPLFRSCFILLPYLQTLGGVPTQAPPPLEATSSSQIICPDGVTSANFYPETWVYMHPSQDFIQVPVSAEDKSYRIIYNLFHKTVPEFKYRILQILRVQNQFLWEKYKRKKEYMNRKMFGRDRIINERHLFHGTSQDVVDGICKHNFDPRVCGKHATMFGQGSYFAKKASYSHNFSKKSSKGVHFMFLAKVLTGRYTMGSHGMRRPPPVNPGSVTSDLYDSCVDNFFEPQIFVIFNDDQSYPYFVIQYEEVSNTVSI

SMILES | IC50
CC(Oc1cccc2c1CN(c1cn[nH]c(=O)c1C(F)(F)F)C2)c1ccncc1 (centres unmarked) [Example 252, 5-(4-(1-(Pyridin-4-yl)ethoxy)isoindolin-2-yl)-4-(trifluoromethyl)pyridazin-3(2H)-one] | < 100 nM
O=c1[nH]ncc(N2Cc3cccc(N4CCOCC4)c3C2)c1C(F)(F)F [Example 253, 5-(4-Morpholinoisoindolin-2-yl)-4-(trifluoromethyl)pyridazin-3(2H)-one] | 100 to 1000 nM
O=c1[nH]ncc(N2Cc3cccc(NCC4CCCO4)c3C2)c1C(F)(F)F (centres unmarked) [Example 254, 5-(4-(((Tetrahydrofuran-2-yl)methyl)amino)isoindolin-2-yl)-4-(trifluoromethyl)pyridazin-3(2H)-one] | 100 to 1000 nM
CN1CCN(CCOc2cccc3c2CN(c2cn[nH]c(=O)c2Cl)C3)CC1 [Example 255, 4-Chloro-5-(4-(2-(4-methylpiperazin-1-yl)ethoxy)isoindolin-2-yl)pyridazin-3(2H)-one] | ≥ 1000 nM
O=c1[nH]ncc(N2Cc3cccc(OCCN4CCCCC4)c3C2)c1Cl [Example 256, 4-Chloro-5-(4-(2-(piperidin-1-yl)ethoxy)isoindolin-2-yl)pyridazin-3(2H)-one] | ≥ 1000 nM
CN1CCC(Oc2cccc3c2CN(c2cn[nH]c(=O)c2Cl)C3)CC1 [Example 257, 4-Chloro-5-(4-((1-methylpiperidin-4-yl)oxy)isoindolin-2-yl)pyridazin-3(2H)-one] | ≥ 1000 nM
CC(=O)N1CCC(Oc2cccc3c2CN(c2cn[nH]c(=O)c2Cl)C3)CC1 [Example 258, 5-(4-((1-Acetylpiperidin-4-yl)oxy)isoindolin-2-yl)-4-chloropyridazin-3(2H)-one] | ≥ 1000 nM
CN1CCC(Oc2cccc3c2CN(c2cn[nH]c(=O)c2Cl)C3)C1 (centres unmarked) [Example 259, 4-Chloro-5-(4-((1-methylpyrrolidin-3-yl)oxy)isoindolin-2-yl)pyridazin-3(2H)-one] | ≥ 1000 nM
COCc1cccc2c1CN(c1cn[nH]c(=O)c1C(F)(F)F)C2 [Example 260, 5-(4-(Methoxymethyl)isoindolin-2-yl)-4-(trifluoromethyl)pyridazin-3(2H)-one] | < 100 nM
O=c1[nH]ncc(N2Cc3cccc(CO)c3C2)c1C(F)(F)F [Example 261, 5-(4-(Hydroxymethyl)isoindolin-2-yl)-4-(trifluoromethyl)pyridazin-3(2H)-one] | 100 to 1000 nM
CNCc1cccc2c1CN(c1cn[nH]c(=O)c1C(F)(F)F)C2 [Example 262, 5-(4-((Methylamino)methyl)isoindolin-2-yl)-4-(trifluoromethyl)pyridazin-3(2H)-one] | ≥ 1000 nM
CN1CCC(Oc2ccc3c(c2)CN(c2cn[nH]c(=O)c2C(F)(F)F)C3)CC1 [Example 263, 5-(5-((1-Methylpiperidin-4-yl)oxy)isoindolin-2-yl)-4-(trifluoromethyl)pyridazin-3(2H)-one] | < 100 nM
CC(=O)NCC1c2ccccc2CN1c1cn[nH]c(=O)c1C(F)(F)F (centres unmarked) [Example 264, N-((2-(6-Oxo-5-(trifluoromethyl)-1,6-dihydropyridazin-4-yl)isoindolin-1-yl)methyl)acetamide] | ≥ 1000 nM
O=c1[nH]ncc(N2Cc3cccc(Cl)c3C2)c1C(F)(F)F [Example 265, 5-(4-Chloroisoindolin-2-yl)-4-(trifluoromethyl)pyridazin-3(2H)-one] | < 100 nM
O=c1[nH]ncc(N2Cc3cccc(NCc4ccncc4)c3C2)c1C(F)(F)F [Example 266, 5-(4-((Pyridin-4-ylmethyl)amino)isoindolin-2-yl)-4-(trifluoromethyl)pyridazin-3(2H)-one] | < 100 nM
COc1ccc(F)c2c1CN(c1cn[nH]c(=O)c1C(F)(F)F)C2 [Example 267, 5-(4-Fluoro-7-methoxyisoindolin-2-yl)-4-(trifluoromethyl)pyridazin-3(2H)-one] | < 100 nM
O=c1[nH]ncc(N2Cc3cccc(OC4CCCOC4)c3C2)c1C(F)(F)F (centres unmarked) [Example 268, 5-(4-((Tetrahydro-2H-pyran-3-yl)oxy)isoindolin-2-yl)-4-(trifluoromethyl)pyridazin-3(2H)-one] | < 100 nM
NC(=O)c1cccc2c1CN(c1cn[nH]c(=O)c1C(F)(F)F)C2 [Example 269, 2-(6-Oxo-5-(trifluoromethyl)-1,6-dihydropyridazin-4-yl)isoindoline-4-carboxamide] | < 100 nM
CN(CC1CCCO1)c1cccc2c1CN(c1cn[nH]c(=O)c1C(F)(F)F)C2 (centres unmarked) [Example 270, 5-(4-(Methyl((tetrahydrofuran-2-yl)methyl)amino)isoindolin-2-yl)-4-(trifluoromethyl)pyridazin-3(2H)-one] | < 100 nM
CC(Nc1cccc2c1CN(c1cn[nH]c(=O)c1C(F)(F)F)C2)c1ccncc1 (centres unmarked) [Example 271, 5-(4-((1-(Pyridin-4-yl)ethyl)amino)isoindolin-2-yl)-4-(trifluoromethyl)pyridazin-3(2H)-one] | < 100 nM
CCc1c(N2Cc3cccc(OC4CCNCC4)c3C2)cn[nH]c1=O [Example 272, 4-Ethyl-5-(4-(piperidin-4-yloxy)isoindolin-2-yl)pyridazin-3(2H)-one] | ≥ 1000 nM

SMILES | IC50
COc1cc(F)c2c(c1)CN(c1cn[nH]c(=O)c1C(F)(F)F)C2 [Example 273, 5-(4-Fluoro-6-methoxyisoindolin-2-yl)-4-(trifluoromethyl)pyridazin-3(2H)-one] | < 100 nM
COc1cc(F)cc2c1CN(c1cn[nH]c(=O)c1C(F)(F)F)C2 [Example 274, 5-(6-Fluoro-4-methoxyisoindolin-2-yl)-4-(trifluoromethyl)pyridazin-3(2H)-one] | < 100 nM
NCC1c2ccccc2CN1c1cn[nH]c(=O)c1C(F)(F)F (centres unmarked) [Example 275, 5-(1-(Aminomethyl)isoindolin-2-yl)-4-(trifluoromethyl)pyridazin-3(2H)-one] | ≥ 1000 nM
CC(=O)N(C)CC1c2ccccc2CN1c1cn[nH]c(=O)c1C(F)(F)F (centres unmarked) [Example 276, N-Methyl-N-((2-(6-oxo-5-(trifluoromethyl)-1,6-dihydropyridazin-4-yl)isoindolin-1-yl)methyl)acetamide] | ≥ 1000 nM
CN(C)C(=O)c1cccc2c1CN(c1cn[nH]c(=O)c1C(F)(F)F)C2 [Example 277, N,N-Dimethyl-2-(6-oxo-5-(trifluoromethyl)-1,6-dihydropyridazin-4-yl)isoindoline-4-carboxamide] | 100 to 1000 nM
CC(O)c1cccc2c1CN(c1cn[nH]c(=O)c1C(F)(F)F)C2 (centres unmarked) [Example 278, 5-(4-(1-Hydroxyethyl)isoindolin-2-yl)-4-(trifluoromethyl)pyridazin-3(2H)-one] | 100 to 1000 nM
O=c1[nH]ncc(N2Cc3cc(F)c(OC4CCNCC4)cc3C2)c1C(F)(F)F [Example 279, 5-(5-Fluoro-6-(piperidin-4-yloxy)isoindolin-2-yl)-4-(trifluoromethyl)pyridazin-3(2H)-one] | < 100 nM
O=c1[nH]ncc(N2Cc3ccncc3C2)c1C(F)(F)F [Example 280, 5-(1,3-Dihydro-2H-pyrrolo[3,4-c]pyridin-2-yl)-4-(trifluoromethyl)pyridazin-3(2H)-one] | 100 to 1000 nM
CN(C)C1CCN(c2cccc3c2CN(c2cn[nH]c(=O)c2C(F)(F)F)C3)CC1 [Example 281, 5-(4-(4-(Dimethylamino)piperidin-1-yl)isoindolin-2-yl)-4-(trifluoromethyl)pyridazin-3(2H)-one] | 100 to 1000 nM
CN(c1cccc2c1CN(c1cn[nH]c(=O)c1C(F)(F)F)C2)C1CCOCC1 [Example 282, 5-(4-(Methyl(tetrahydro-2H-pyran-4-yl)amino)isoindolin-2-yl)-4-(trifluoromethyl)pyridazin-3(2H)-one] | 100 to 1000 nM
O=c1[nH]ncc(N2Cc3c(F)ccc(OCCO)c3C2)c1C(F)(F)F [Example 283, 5-(4-Fluoro-7-(2-hydroxyethoxy)isoindolin-2-yl)-4-(trifluoromethyl)pyridazin-3(2H)-one] | 100 to 1000 nM
O=c1[nH]ncc(N2Cc3cccc(N4CCCC4)c3C2)c1C(F)(F)F [Example 284, 5-(4-(Pyrrolidin-1-yl)isoindolin-2-yl)-4-(trifluoromethyl)pyridazin-3(2H)-one] | < 100 nM
CN(C)C1CCN(c2cccc3c2CN(c2cn[nH]c(=O)c2C(F)(F)F)C3)C1 (centres unmarked) [Example 285, 5-(4-(3-(Dimethylamino)pyrrolidin-1-yl)isoindolin-2-yl)-4-(trifluoromethyl)pyridazin-3(2H)-one] | < 100 nM
O=c1[nH]ncc(N2Cc3c(F)ccc(OCCN4CCOCC4)c3C2)c1C(F)(F)F [Example 286, 5-(4-Fluoro-7-(2-morpholinoethoxy)isoindolin-2-yl)-4-(trifluoromethyl)pyridazin-3(2H)-one] | < 100 nM
CC(C)c1c(N2Cc3ccc(OC4CCCNC4)cc3C2)cn[nH]c1=O (centres unmarked) [Example 287, 4-Isopropyl-5-(5-(piperidin-3-yloxy)isoindolin-2-yl)pyridazin-3(2H)-one] | ≥ 1000 nM
O=c1[nH]ncc(N2Cc3ccc(O[C@@H]4CCCNC4)cc3C2)c1C(F)(F)F [Example 288, (R)-5-(5-(Piperidin-3-yloxy)isoindolin-2-yl)-4-(trifluoromethyl)pyridazin-3(2H)-one] | < 100 nM
O=c1[nH]ncc(N2Cc3ccc(O[C@H]4CCCNC4)cc3C2)c1C(F)(F)F [Example 289, (S)-5-(5-(Piperidin-3-yloxy)isoindolin-2-yl)-4-(trifluoromethyl)pyridazin-3(2H)-one] | < 100 nM
O=c1[nH]ncc(N2Cc3cccc(NC4CCOCC4)c3C2)c1C(F)(F)F [Example 290, 5-(4-((Tetrahydro-2H-pyran-4-yl)amino)isoindolin-2-yl)-4-(trifluoromethyl)pyridazin-3(2H)-one] | 100 to 1000 nM
O=c1[nH]ncc(N2Cc3c(F)ccc(OC4CCNCC4)c3C2)c1C(F)(F)F [Example 291, 5-(4-Fluoro-7-(piperidin-4-yloxy)isoindolin-2-yl)-4-(trifluoromethyl)pyridazin-3(2H)-one] | 100 to 1000 nM
CC(C)c1c(N2Cc3ccc(O[C@@H]4CCCNC4)cc3C2)cn[nH]c1=O [Example 292, (R)-4-Isopropyl-5-(5-(piperidin-3-yloxy)isoindolin-2-yl)pyridazin-3(2H)-one] | ≥ 1000 nM
